Source: patent publication US10617680B2 (CELGENE QUANTICEL RESEARCH, INC., priority 2017, dated 2020)
pIC50: −log10 of the molar value.

These compounds were tested against CBP (Homo sapiens (Human), UniProt Q92793) (assay: In vitro CBP inhibition (AlphaScreen, biotinylated H4-tetraacetyl peptide)). Settings: not given.
Chain of CBP (Q92793 1081-1197): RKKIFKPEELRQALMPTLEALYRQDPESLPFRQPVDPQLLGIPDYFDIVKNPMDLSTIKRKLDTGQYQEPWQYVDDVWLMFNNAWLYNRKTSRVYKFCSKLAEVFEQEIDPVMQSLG
Type: binding
How it was run: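 His-tagged CBP expressed in E. coli (50 nM final) incubated with biotinylated H4K5/8/12/16(Ac) peptide (20 nM final) in 50 mM HEPES pH 7.3, 10 mM NaCl, 0.25 mM TCEP, 0.1% BSA, 0.005% Brij-35, 0.4% DMSO, 20 min at room temp.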
`Cc1ccccc1-c1cc(=O)n(C)cc1-c1cnn(Cc2ccccc2)c1` [Example 106, 5-(1-benzyl-1H-pyrazol-4-yl)-1-methyl-4-o-tolyl-1H-pyridin-2-one] gave a pIC50 of 5.30 to 6.30.

Same assay, conditions: AlphaScreen, Table 29; read-out: CBP IC50
`CCCn1cc(-c2cn(C)c(=O)cc2-c2ccccc2)cn1` [Example 139, 1-methyl-4-phenyl-5-(1-propyl-1H-pyrazol-4-yl)pyridin-2(1H)-one] was tested, and the pIC50 was > 6.30. `Cn1cc(-c2cn(C)c(=O)cc2C2CCCCC2)cn1` [Example 143, 4-cyclohexyl-1-methyl-5-(1-methyl-1H-pyrazol-4-yl)pyridin-2 (1H)-one] was tested, and the pIC50 was 5.30 to 6.30. With `Cn1cc(-c2cnn(-c3ccccc3C#N)c2)c(-c2ccc(=O)[nH]c2)cc1=O` [Example 206, 2-[4-(1′-Methyl-6,6′-dioxo-1,6,1′,6′-tetrahydro-[3,4′]bipyridinyl-3′-yl)-pyrazol-1-y]benzonitrile] the pIC50 was > 6.30. With `CCOc1ccc(-c2cc(=O)n(C)cc2-c2cnn(-c3cc(OC)ccc3C#N)c2)cn1` [Example 265, 2-[4-(6-Ethoxy-1′-methyl-6′-oxo-1′,6′-dihydro-[3,4′]bipyridinyl-3′-yl)-pyrazol-1-yl]-4-methoxy-benzonitrile] the pIC50 was > 6.30. For `Cn1nccc1-c1cc(=O)n(C)cc1-c1cnn(Cc2ccccc2)c1` [Example 110, 5-(1-benzyl-1H-pyrazol-4-yl)-1-methyl-4-(1-methyl-1H-pyrazol-5-yl)pyridin-2(1H)-one], the pIC50 was 5.30 to 6.30. For `Cn1cc(-c2cnn(-c3cccc(F)c3C#N)c2)c(-c2ccc(OC(F)F)nc2)cc1=O` [Example 353, 2-(4-(6-(difluoromethoxy)-1′-methyl-6′-oxo-1′,6′-dihydro-[3,4′-bipyridin]-3′-yl)-1H-pyrazol-1-yl)-6-fluorobenzonitrile], the pIC50 was > 6.30. `Cn1cc(-c2cnn(Cc3ccccn3)c2)ccc1=O` [Example 5, 1-methyl-5-(1-(pyridin-2-ylmethyl)-1H-pyrazol-4-yl)pyridin-2(1H)-one] was tested, and the pIC50 was 5.30 to 6.30. In the case of `Cn1cc(-c2cnn(C3CCOCC3)c2)c(-c2ccccc2)cc1=O` [Example 126, 1-methyl-4-phenyl-5-(1-(tetrahydro-2H-pyran-4-yl)-1H-pyrazol-4-yl) pyridin-2(1H)-one], the pIC50 was > 6.30. For `Cn1cc(-c2cnn(-c3cccc(Cl)c3C#N)c2)c(-c2ccc(C3CCCC3)nc2)cc1=O` [Example 379, 2-chloro-6-(4-(6-cyclopentyl-1′-methyl-6′-oxo-1′,6′-dihydro-[3,4′-bipyridin]-3′-yl)-1H-pyrazol-1-yl)benzonitrile], the pIC50 was > 6.30. For `CN(C)c1ccc(-c2cc(=O)n(C)cc2-c2cnn(-c3cccc(F)c3C#N)c2)cn1` [Example 347, 2-{4-[6-(dimethylamino)-1′-methyl-6′-oxo-1′,6′-dihydro-[3,4′-bipyridine]-3′-yl]-1H-pyrazol-1-yl}-6-fluorobenzonitrile], the pIC50 was > 6.30. In the case of `CCOc1cc(=O)n(C)cc1-c1cnn2c1CN(C(C)=O)CC2` [Example 393, 5-(5-Acetyl-4,5,6,7-tetrahydro-pyrazolo[1,5-a]pyrazin-3-yl)-4-ethoxy-1-methyl-1H-pyridin-2-one], the pIC50 was 5.30 to 6.30. `Cn1cc(-c2cnn(-c3ccccc3C(=O)O)c2)c(-c2ccc(F)cc2)cc1=O` [Example 226, 2-{4-[4-(4-Fluoro-phenyl)-1-methyl-6-oxo-1,6-dihydro-pyridin-3-yl]-pyrazol-1-yl}-benzoic acid] was tested, and the pIC50 was > 6.30. With `CC(=O)NC[C@@H]1CCN(c2cc(=O)n(C)cc2-c2cnn(Cc3ccccc3)c2)C1` (stereo in doubt) [Example 89, N-{1-[5-(1-benzyl-1H-pyrazol-4-yl)-1-methyl-2-oxo-1,2-dihydro-pyridin-4-yl]-pyrrolidin-3-ylmethyl}-acetamide] the pIC50 was > 6.30. In the case of `COc1ncc(-c2cc(=O)n(C)cc2-c2cnn(-c3ccccc3C#N)c2)cn1` [Example 244, 2-{4-[4-(2-Methoxy-pyrimidin-5-yl)-1-methyl-6-oxo-1,6-dihydro-pyridin-3-yl]-pyrazol-1-yl}-benzonitrile], the pIC50 was > 6.30. For `Cc1ccc(-c2cc(=O)n(C)cc2-c2cnn(-c3ccccc3C#N)c2)cc1` [Example 213, 2-[4-(1-Methyl-6-oxo-4-p-tolyl-1,6-dihydro-pyridin-3-yl)-pyrazol-1-yl]-benzonitrile], the pIC50 was > 6.30. `CNc1ncc(-c2cc(=O)n(C)cc2-c2cnn(-c3cccc(Cl)c3C#N)c2)cn1` [Example 332, 2-chloro-6-(4-(1-methyl-4-(2-(methylamino)pyrimidin-5-yl)-6-oxo-1,6-dihydropyridin-3-yl)-1H-pyrazol-1-yl)benzonitrile] was tested, and the pIC50 was > 6.30. With `Cn1cc(-c2cnn(Cc3ccccc3)c2)c(-c2ccc(C#N)cc2)cc1=O` [Example 150, 4-(5-(1-benzyl-1H-pyrazol-4-yl)-1-methyl-2-oxo-1,2-dihydro-pyridin-4-yl)benzonitrile] the pIC50 was > 6.30. With `Cn1cc(-c2cnn(Cc3ccccc3)c2)c(-c2ccc(C(N)=O)cc2)cc1=O` [Example 151, 4-(5-(1-benzyl-1H-pyrazol-4-yl)-1-methyl-2-oxo-1,2-dihydro-pyridin-4-yl)benzamide] the pIC50 was > 6.30. With `Cn1ccc(-c2cc(=O)n(C)cc2-c2cnn(-c3ccccc3Cl)c2)cc1=O` [Example 314, 5-(1-(2-chlorophenyl)-1H-pyrazol-4-yl)-1,1′-dimethyl-[4,4′-bipyridine]-2,2′(1H,1′H)-dione] the pIC50 was > 6.30. For `CC(C)Oc1ccc(-c2cc(=O)n(C)cc2-c2cnn(-c3cccc(Cl)c3C#N)c2)cn1` [Example 363, 2-chloro-6-[4-[4-(6-isopropoxy-3-pyridyl)-1-methyl-6-oxo-3-pyridyl]pyrazol-1-yl]benzonitrile], the pIC50 was > 6.30. For `CCOc1ccc(-c2cc(=O)n(C)cc2-c2cnn(-c3ccccc3C(=O)O)c2)cn1` [Example 230, 2-[4-(6-Ethoxy-1′-methyl-6′-oxo-1′,6′-dihydro-[3,4′]bipyridinyl-3′-yl)-pyrazol-1-yl]-benzoic acid], the pIC50 was > 6.30. In the case of `Cn1cc(-c2cnn(Cc3ccccc3)c2)c(-c2ccn[nH]2)cc1=O` [Example 114, 5-(1-benzyl-1H-pyrazol-4-yl)-1-methyl-4-(1H-pyrazol-5-yl) pyridin-2(1H)-one], the pIC50 was > 6.30. With `CC(c1cccc(Cl)c1)n1cc(-c2ccc(=O)n(C)c2)cn1` (stereo not drawn) [Example 23, 5-(1-(1-(3-chlorophenyl)ethyl)-1H-pyrazol-4-yl)-1-methyl-pyridin-2(1H)-one] the pIC50 was > 6.30. In the case of `Cc1ccc(-c2cc(=O)n(C)cc2-c2cnn(Cc3ccccc3)c2)cc1` [Example 112, 5-(1-benzyl-1H-pyrazol-4-yl)-1-methyl-4-(p-tolyl)pyridin-2(1H)-one], the pIC50 was > 6.30. With `COc1cc(=O)n(C)cc1-c1cnn(C(C)c2ccccc2)c1` (stereo not drawn) [Example 175, 4-methoxy-1-methyl-5-(1-(1-phenylethyl)-1H-pyrazol-4-yl) pyridin-2(1H)-one] the pIC50 was > 6.30. With `CN(C)c1ncc(-c2cc(=O)n(C)cc2-c2cnn(-c3cccc(Cl)c3C#N)c2)cn1` [Example 328, 2-chloro-6-(4-(4-(2-(dimethylamino)pyrimidin-5-yl)-1-methyl-6-oxo-1,6-dihydropyridin-3-yl)-1H-pyrazol-1-yl)benzonitrile] the pIC50 was > 6.30. Compound `Cn1cc(-c2cnc(-c3ccccc3)o2)c(-c2ccccc2)cc1=O` [Example 397, 1-methyl-4-phenyl-5-(2-phenyloxazol-5-yl)pyridin-2(1H)-one] has a pIC50 of 5.30 to 6.30. `CCOc1cc(=O)n(C)cc1-c1cnn(Cc2ccccc2)c1` [Example 64, 5-(1-benzyl-1H-pyrazol-4-yl)-4-ethoxy-1-methylpyridin-2(1H)-one] was tested, and the pIC50 was > 6.30. With `CC(C)Oc1cc(=O)n(C)cc1-c1cnn(-c2ccccc2C(=O)O)c1` [Example 203, 2-[4-(4-Isopropoxy-1-methyl-6-oxo-1,6-dihydro-pyridin-3-yl)-pyrazol-1-yl]-benzoic Acid] the pIC50 was > 6.30. `COc1cc(-c2cc(=O)n(C)cc2-c2cnn(-c3ccccc3C#N)c2)ccn1` [Example 220, 2-[4-(2′-Methoxy-1-methyl-6-oxo-1,6-dihydro-[4,4′]bipyridinyl-3-yl)-pyrazol-1-yl]-benzonitrile] was tested, and the pIC50 was > 6.30. `Cn1cc(-c2cnn(Cc3ccccc3)c2)c(SCC(=O)O)cc1=O` [Example 169, [5-(1-Benzyl-1H-pyrazol-4-yl)-1-methyl-2-oxo-1,2-dihydro-pyridin-4-ylsulfanyl]-acetic acid] was tested, and the pIC50 was > 6.30. For `COc1ccc(-c2cc(=O)n(C)cc2-c2cnn(-c3ccccc3C#N)c2)cc1OC` [Example 243, 2-(4-(4-(3,4-dimethoxyphenyl)-1-methyl-6-oxo-1,6-dihydropyridin-3-yl)-1H-pyrazol-1-yl)benzonitrile], the pIC50 was > 6.30. In the case of `COc1ccc(-c2cc(=O)n(C)cc2-c2cnn(-c3cc(C#N)ccc3OC)c2)cn1` [Example 306, 4-Methoxy-3-[4-(6-methoxy-1′-methyl-6′-oxo-1′,6′-dihydro-[3,4′]bipyridinyl-3′-yl)-pyrazol-1-yl]-benzonitrile], the pIC50 was > 6.30. For `Cn1cc(-c2cn(C)c(=O)cc2C2CC2)cn1` [Example 144, 4-cyclopropyl-1-methyl-5-(1-methyl-1H-pyrazol-4-yl) pyridin-2(1H)-one], the pIC50 was > 6.30. For `COc1ccc(C(=O)O)c(-n2cc(-c3cn(C)c(=O)cc3-c3ccnc(OC)c3)cn2)c1` [Example 272, 4-Methoxy-2-[4-(2′-methoxy-1-methyl-6-oxo-1,6-dihydro-[4,4′]bipyridinyl-3-yl)-pyrazol-1-yl]-benzoic acid], the pIC50 was > 6.30. For `Cn1cc(-c2cnn(Cc3ccccc3)c2)c(-n2ccc(C(=O)O)c2)cc1=O` [Example 79, 1-(5-(1-benzyl-1H-pyrazol-4-yl)-1-methyl-2-oxo-1,2-dihydropyridin-4-yl)-1H-pyrrole-3-carboxylic acid], the pIC50 was > 6.30. `CC(C)Nc1ncc(-c2cc(=O)n(C)cc2-c2cnn(-c3cccc(Cl)c3C#N)c2)cn1` [Example 331, 2-chloro-6-(4-(4-(2-(isopropylamino)pyrimidin-5-yl)-1-methyl-6-oxo-1,6-dihydropyridin-3-yl)-1H-pyrazol-1-yl)benzonitrile] was tested, and the pIC50 was > 6.30. For `COc1ccc(-c2cc(=O)n(C)cc2-c2cnn(-c3ccccc3C#N)c2)cn1` [Example 238, 2-(4-(6-methoxy-1′-methyl-6′-oxo-1′,6′-dihydro-[3,4′-bipyridin]-3′-yl)-1H-pyrazol-1-yl)benzonitrile], the pIC50 was > 6.30.
